{"source": "patent US20230074545A1", "about": "“TREATMENT OF CANCER WITH CDK12/13 INHIBITORS” (Kinnate Biopharma Inc., priority 2019, published 2023)", "test_in_all_cases": "Radiometric kinase panel", "assay_type_in_all_cases": "biochemical", "key": {"AKT3": {"target": "T1, AKT3 (Homo sapiens, UniProt Q9Y243)", "T1 construct": "purchased ProQinase GmbH (Reaction Biology)", "T1 sequence (Q9Y243 whole entry, the tested form may be a part)": "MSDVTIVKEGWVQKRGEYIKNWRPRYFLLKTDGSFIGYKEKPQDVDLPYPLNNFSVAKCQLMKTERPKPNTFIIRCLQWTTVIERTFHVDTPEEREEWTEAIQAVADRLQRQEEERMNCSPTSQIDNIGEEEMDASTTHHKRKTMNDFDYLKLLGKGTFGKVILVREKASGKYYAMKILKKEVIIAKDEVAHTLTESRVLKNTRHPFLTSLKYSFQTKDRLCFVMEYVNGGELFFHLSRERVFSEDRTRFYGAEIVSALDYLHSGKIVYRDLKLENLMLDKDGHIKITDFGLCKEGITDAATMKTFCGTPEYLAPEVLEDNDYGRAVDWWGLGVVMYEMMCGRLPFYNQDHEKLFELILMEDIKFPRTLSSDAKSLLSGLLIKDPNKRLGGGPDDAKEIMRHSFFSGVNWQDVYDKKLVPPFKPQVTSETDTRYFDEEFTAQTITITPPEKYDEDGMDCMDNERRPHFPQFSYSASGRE", "in_short": "(§1)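 Activity was measured radiometrically from [gamma-33P]-ATP incorporation into substrate. The kinases were recombinant human GST- or His-tagged proteins, full-length or active fragments, expressed in Sf9 or E. coli. Compound in 10% DMSO was added before the enzyme/substrate mix, which started the reaction.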"}, "MET": {"target": "T2, MET (Homo sapiens, UniProt P08581)", "T2 construct": "purchased ProQinase GmbH (Reaction Biology); host or cells: Sf9 insect cells or E. coli (not specified per kinase)", "in_short": "as §1"}, "NEK3": {"target": "T3, NEK3 (Homo sapiens, UniProt P51956)", "T3 construct": "either as full-length or enzymatically active fragments; purchased ProQinase GmbH (Reaction Biology)", "in_short": "as §1"}, "ACVR1B": {"target": "T4, ACVR1B (Homo sapiens, UniProt P36896)", "T4 construct": "purchased ProQinase GmbH (Reaction Biology); host or cells: Sf9 insect cells or E. coli (not specified per kinase)", "in_short": "as §1"}, "CDK5/p35NCK": {"target": "T5, CDK5/p35NCK (Homo sapiens, UniProt Q00535)", "T5 construct": "either as full-length or enzymatically active fragments; purchased ProQinase GmbH (Reaction Biology)", "in_short": "as §1"}, "MAP4K4": {"target": "T6, MAP4K4 (Homo sapiens, UniProt O95819)", "T6 construct": "purchased ProQinase GmbH (Reaction Biology)", "in_short": "as §1"}, "TRKB": {"target": "T7, TRKB (Homo sapiens, UniProt Q16620)", "T7 construct": "purchased ProQinase GmbH (Reaction Biology)", "in_short": "as §1"}, "AuroraA": {"target": "T8, AuroraA (Homo sapiens, UniProt O14965)", "T8 construct": "either as full-length or enzymatically active fragments; purchased ProQinase GmbH (Reaction Biology)", "in_short": "as §1"}, "EPHA3": {"target": "T9, EPHA3 (Homo sapiens, UniProt P29320)", "T9 construct": "either as full-length or enzymatically active fragments; purchased ProQinase GmbH (Reaction Biology)", "in_short": "as §1"}, "ITK": {"target": "T10, ITK (Homo sapiens, UniProt Q08881)", "T10 construct": "purchased ProQinase GmbH (Reaction Biology); host or cells: Sf9 insect cells or E. coli (not specified per kinase)", "in_short": "as §1"}, "VRK1": {"target": "T11, VRK1 (Homo sapiens, UniProt Q99986)", "T11 construct": "either as full-length or enzymatically active fragments; purchased ProQinase GmbH (Reaction Biology)", "in_short": "as §1"}, "MAPKAPK3": {"target": "T12, MAPKAPK3 (Homo sapiens, UniProt Q16644)", "T12 construct": "either as full-length or enzymatically active fragments; purchased ProQinase GmbH (Reaction Biology)", "T12 sequence (Q16644 whole entry, the tested form may be a part)": "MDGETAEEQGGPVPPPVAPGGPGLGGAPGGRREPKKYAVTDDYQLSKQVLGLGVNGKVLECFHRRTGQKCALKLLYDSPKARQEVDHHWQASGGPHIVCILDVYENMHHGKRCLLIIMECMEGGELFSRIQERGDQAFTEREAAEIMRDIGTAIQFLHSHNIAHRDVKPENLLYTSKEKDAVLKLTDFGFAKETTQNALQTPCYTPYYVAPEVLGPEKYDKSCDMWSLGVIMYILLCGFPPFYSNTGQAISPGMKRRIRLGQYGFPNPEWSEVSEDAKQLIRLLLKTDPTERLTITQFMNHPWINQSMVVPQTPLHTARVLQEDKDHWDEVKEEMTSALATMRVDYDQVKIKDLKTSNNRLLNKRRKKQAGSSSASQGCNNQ", "in_short": "as §1"}, "MEK1": {"target": "T13, MEK1 (Homo sapiens, UniProt Q02750)", "T13 construct": "either as full-length or enzymatically active fragments; purchased ProQinase GmbH (Reaction Biology); host or cells: Sf9 insect cells or E. coli", "in_short": "as §1"}, "CK1gamma1": {"target": "T14, CK1gamma1 (Homo sapiens, UniProt Q9HCP0)", "T14 construct": "either as full-length or enzymatically active fragments; purchased ProQinase GmbH (Reaction Biology)", "in_short": "as §1"}, "BTK": {"target": "T15, BTK (Homo sapiens, UniProt Q06187)", "T15 construct": "purchased ProQinase GmbH (Reaction Biology); host or cells: Sf9 insect cells or E. coli (not specified per kinase)", "T15 sequence (Q06187 whole entry)": "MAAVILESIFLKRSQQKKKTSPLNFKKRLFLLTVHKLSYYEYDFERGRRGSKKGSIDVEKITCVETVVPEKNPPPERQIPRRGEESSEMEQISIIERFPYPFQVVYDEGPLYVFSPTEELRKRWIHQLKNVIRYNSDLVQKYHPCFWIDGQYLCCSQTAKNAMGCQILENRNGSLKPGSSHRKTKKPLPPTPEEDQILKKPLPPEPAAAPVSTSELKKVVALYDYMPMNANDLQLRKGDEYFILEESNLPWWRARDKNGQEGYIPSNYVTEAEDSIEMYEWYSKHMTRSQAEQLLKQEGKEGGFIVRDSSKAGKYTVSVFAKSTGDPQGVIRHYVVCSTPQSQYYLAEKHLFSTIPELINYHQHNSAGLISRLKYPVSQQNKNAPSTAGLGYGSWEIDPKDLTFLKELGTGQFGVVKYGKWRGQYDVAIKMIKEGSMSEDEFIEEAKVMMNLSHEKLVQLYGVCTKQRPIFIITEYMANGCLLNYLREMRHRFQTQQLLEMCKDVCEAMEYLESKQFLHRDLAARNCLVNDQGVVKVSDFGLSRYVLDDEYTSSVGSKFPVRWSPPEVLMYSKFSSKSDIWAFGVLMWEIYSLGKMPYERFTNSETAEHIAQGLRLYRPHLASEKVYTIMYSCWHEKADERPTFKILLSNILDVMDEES", "in_short": "as §1"}, "CDK16/CycY": {"target": "T16, CDK16/CycY (Homo sapiens, UniProt Q00536)", "T16 construct": "either as full-length or enzymatically active fragments; purchased ProQinase GmbH (Reaction Biology)", "T16 sequence (Q00536 whole entry, the tested form may be a part)": "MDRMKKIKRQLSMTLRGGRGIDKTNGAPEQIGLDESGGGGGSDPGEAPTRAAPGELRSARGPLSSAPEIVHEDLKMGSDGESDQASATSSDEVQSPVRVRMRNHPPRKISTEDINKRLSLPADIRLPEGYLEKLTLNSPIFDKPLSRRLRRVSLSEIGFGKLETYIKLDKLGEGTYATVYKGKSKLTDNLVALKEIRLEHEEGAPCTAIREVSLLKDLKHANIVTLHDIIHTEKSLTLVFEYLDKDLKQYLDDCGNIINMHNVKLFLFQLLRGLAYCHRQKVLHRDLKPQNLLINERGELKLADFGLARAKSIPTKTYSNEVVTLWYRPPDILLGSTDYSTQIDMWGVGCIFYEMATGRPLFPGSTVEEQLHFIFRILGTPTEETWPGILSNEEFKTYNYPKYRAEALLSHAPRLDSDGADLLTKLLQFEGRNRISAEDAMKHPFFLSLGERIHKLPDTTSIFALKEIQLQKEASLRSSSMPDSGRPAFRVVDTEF", "T16 sequence (Q8ND76 whole entry partner, the tested form may be a part)": "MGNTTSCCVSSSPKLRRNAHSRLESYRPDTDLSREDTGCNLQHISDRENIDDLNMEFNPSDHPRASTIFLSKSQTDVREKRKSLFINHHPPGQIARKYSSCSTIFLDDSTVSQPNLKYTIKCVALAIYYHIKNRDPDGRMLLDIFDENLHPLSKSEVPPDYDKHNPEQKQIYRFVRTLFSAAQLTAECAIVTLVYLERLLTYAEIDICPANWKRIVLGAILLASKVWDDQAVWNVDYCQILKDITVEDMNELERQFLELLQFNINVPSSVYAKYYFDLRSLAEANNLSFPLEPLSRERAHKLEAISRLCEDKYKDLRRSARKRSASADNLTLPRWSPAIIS", "in_short": "as §1"}, "CDK6/CycD1": {"target": "T17, CDK6/CycD1 (Homo sapiens, UniProt Q00534)", "T17 construct": "purchased ProQinase GmbH (Reaction Biology); host or cells: Sf9 insect cells or E. coli (not specified per kinase)", "T17 sequence (Q00534 whole entry)": "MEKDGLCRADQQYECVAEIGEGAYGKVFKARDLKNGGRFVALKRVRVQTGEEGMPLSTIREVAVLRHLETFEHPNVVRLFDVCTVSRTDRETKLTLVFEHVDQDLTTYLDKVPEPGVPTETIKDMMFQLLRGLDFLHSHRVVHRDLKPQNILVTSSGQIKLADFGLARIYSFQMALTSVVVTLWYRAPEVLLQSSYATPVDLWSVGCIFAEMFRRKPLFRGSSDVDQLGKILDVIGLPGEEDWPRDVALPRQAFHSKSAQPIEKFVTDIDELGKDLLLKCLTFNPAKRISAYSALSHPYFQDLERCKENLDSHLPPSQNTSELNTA", "T17 sequence (P24385 whole entry partner)": "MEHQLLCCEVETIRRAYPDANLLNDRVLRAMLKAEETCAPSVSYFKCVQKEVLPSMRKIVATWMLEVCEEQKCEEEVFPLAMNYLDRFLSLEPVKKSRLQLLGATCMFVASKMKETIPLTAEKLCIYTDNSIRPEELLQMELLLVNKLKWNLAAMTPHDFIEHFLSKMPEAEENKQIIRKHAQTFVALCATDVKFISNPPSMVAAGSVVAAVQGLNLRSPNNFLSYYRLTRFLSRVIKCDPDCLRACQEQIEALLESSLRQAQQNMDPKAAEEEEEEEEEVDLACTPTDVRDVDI", "in_short": "as §1"}, "p38gamma": {"target": "T18, p38gamma (Homo sapiens, UniProt P53778)", "T18 construct": "either as full-length or enzymatically active fragments; purchased ProQinase GmbH (Reaction Biology); host or cells: Sf9 insect cells or E. coli (not specified per kinase)", "in_short": "as §1"}, "PKCiota": {"target": "T19, PKCiota (Homo sapiens, UniProt P41743)", "T19 construct": "either as full-length or enzymatically active fragments; purchased ProQinase GmbH (Reaction Biology)", "in_short": "as §1"}, "PAK1": {"target": "T20, PAK1 (Homo sapiens, UniProt Q13153)", "T20 construct": "either as full-length or enzymatically active fragments; purchased ProQinase GmbH (Reaction Biology)", "in_short": "as §1"}, "BRAF": {"target": "T21, BRAF (Homo sapiens, UniProt P15056)", "T21 construct": "purchased ProQinase GmbH (Reaction Biology)", "in_short": "as §1"}, "RPS6KA6": {"target": "T22, RPS6KA6 (Homo sapiens, UniProt Q9UK32)", "T22 construct": "purchased ProQinase GmbH (Reaction Biology)", "in_short": "as §1"}, "ZAK": {"target": "T23, ZAK (Homo sapiens, UniProt Q9NYL2)", "T23 construct": "either as full-length or enzymatically active fragments; purchased ProQinase GmbH (Reaction Biology)", "in_short": "as §1"}, "HIPK4": {"target": "T24, HIPK4 (Homo sapiens, UniProt Q8NE63)", "T24 construct": "either as full-length or enzymatically active fragments; purchased ProQinase GmbH (Reaction Biology); host or cells: Sf9 insect cells or E. coli", "in_short": "as §1"}, "VEGFR1": {"target": "T25, VEGFR1 (Homo sapiens, UniProt P17948)", "T25 construct": "either as full-length or enzymatically active fragments; purchased ProQinase GmbH (Reaction Biology); host or cells: Sf9 insect cells or E. coli (not specified per kinase)", "T25 sequence (P17948 27-1338)": "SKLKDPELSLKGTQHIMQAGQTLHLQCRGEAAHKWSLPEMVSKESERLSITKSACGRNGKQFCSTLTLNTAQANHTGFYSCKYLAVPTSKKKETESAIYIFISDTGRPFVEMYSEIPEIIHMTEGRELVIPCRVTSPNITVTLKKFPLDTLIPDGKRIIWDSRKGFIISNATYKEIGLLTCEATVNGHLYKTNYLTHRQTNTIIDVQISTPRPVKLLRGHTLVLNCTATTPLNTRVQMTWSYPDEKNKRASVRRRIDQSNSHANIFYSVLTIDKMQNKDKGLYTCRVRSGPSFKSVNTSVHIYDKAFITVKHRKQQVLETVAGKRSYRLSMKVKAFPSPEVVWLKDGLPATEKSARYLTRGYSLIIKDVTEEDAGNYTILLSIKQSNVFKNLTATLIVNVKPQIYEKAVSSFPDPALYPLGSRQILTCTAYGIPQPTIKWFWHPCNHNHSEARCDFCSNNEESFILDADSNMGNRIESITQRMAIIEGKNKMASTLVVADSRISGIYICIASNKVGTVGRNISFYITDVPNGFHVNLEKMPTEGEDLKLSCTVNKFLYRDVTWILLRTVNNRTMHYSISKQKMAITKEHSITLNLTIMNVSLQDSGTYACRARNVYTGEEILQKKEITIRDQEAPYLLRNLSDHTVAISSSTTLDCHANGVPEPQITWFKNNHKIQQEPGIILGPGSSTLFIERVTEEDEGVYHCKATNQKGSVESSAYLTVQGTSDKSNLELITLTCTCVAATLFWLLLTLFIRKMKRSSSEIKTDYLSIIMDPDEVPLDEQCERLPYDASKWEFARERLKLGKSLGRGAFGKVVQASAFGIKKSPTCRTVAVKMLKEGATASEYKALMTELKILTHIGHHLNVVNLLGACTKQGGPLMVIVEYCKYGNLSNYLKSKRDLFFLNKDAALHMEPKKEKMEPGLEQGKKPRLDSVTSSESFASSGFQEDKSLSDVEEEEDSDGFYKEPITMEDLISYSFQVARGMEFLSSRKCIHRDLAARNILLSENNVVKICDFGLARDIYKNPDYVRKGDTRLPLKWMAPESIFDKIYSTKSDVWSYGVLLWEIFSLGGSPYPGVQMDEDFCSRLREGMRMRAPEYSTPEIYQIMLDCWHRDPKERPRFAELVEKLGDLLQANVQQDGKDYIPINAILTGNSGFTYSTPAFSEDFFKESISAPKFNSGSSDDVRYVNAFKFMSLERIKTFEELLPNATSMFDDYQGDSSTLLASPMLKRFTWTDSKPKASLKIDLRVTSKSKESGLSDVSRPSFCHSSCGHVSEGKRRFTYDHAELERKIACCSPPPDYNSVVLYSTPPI", "in_short": "as §1"}, "WNK2": {"target": "T26, WNK2 (Homo sapiens, UniProt Q9Y3S1)", "T26 construct": "either as full-length or enzymatically active fragments; purchased ProQinase GmbH (Reaction Biology)", "in_short": "as §1"}, "DNAPK": {"target": "T27, DNAPK (Homo sapiens, UniProt P78527)", "T27 construct": "purchased ProQinase GmbH (Reaction Biology); host or cells: Sf9 insect cells or E. coli (not specified per kinase)", "in_short": "as §1"}, "DYRK2": {"target": "T28, DYRK2 (Homo sapiens, UniProt Q92630)", "T28 construct": "purchased ProQinase GmbH (Reaction Biology); host or cells: Sf9 insect cells or E. coli (not specified per kinase)", "in_short": "as §1"}, "TSSK1": {"target": "T29, TSSK1 (Homo sapiens, UniProt Q9BXA7)", "T29 construct": "either as full-length or enzymatically active fragments; purchased ProQinase GmbH (Reaction Biology)", "in_short": "as §1"}, "TIE2": {"target": "T30, TIE2 (Homo sapiens, UniProt Q02763)", "T30 construct": "either as full-length or enzymatically active fragments; purchased ProQinase GmbH (Reaction Biology); host or cells: Sf9 insect cells or E. coli", "in_short": "as §1"}, "ERK2": {"target": "T31, ERK2 (Homo sapiens, UniProt P28482)", "T31 construct": "either as full-length or enzymatically active fragments; purchased ProQinase GmbH (Reaction Biology); host or cells: Sf9 insect cells or E. coli (not specified per kinase)", "T31 sequence (P28482 whole entry, the tested form may be a part)": "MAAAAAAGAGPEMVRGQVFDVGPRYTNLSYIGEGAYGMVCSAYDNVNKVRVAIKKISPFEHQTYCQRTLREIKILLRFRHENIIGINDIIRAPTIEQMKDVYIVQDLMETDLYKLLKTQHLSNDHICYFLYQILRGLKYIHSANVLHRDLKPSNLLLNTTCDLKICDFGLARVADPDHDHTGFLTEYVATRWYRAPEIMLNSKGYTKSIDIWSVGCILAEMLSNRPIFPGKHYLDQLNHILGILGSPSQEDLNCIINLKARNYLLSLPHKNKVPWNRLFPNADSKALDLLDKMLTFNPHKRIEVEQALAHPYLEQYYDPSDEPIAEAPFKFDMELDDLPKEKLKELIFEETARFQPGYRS", "in_short": "as §1"}}, "data": [{"smiles": "C=CC(=O)Nc1ccc(C(=O)N2CC[C@@H](Nc3ncc(C#N)cn3)C2)cc1", "note": "[Compound 4, (R)-N-(4-(3-((5-cyanopyrimidin-2-yl)amino)pyrrolidine-1-carbonyl)phenyl)acrylamide]", "values": [{"measurement": "inhibition at 1 µM", "setting": "AKT3", "result": -2, "unit": "%"}, {"measurement": "inhibition at 1 µM", "setting": "MET", "result": 0, "unit": "%"}, {"measurement": "inhibition at 1 µM", "setting": "NEK3", "result": 6, "unit": "%"}, {"measurement": "inhibition at 1 µM", "setting": "ACVR1B", "result": 1, "unit": "%"}, {"measurement": "inhibition at 1 µM", "setting": "CDK5/p35NCK", "result": 23, "unit": "%"}, {"measurement": "inhibition at 1 µM", "setting": "MAP4K4", "result": 0, "unit": "%"}, {"measurement": "inhibition at 1 µM", "setting": "TRKB", "result": -1, "unit": "%"}, {"measurement": "inhibition at 1 µM", "setting": "AuroraA", "result": 5, "unit": "%"}, {"measurement": "inhibition at 1 µM", "setting": "EPHA3", "result": 6, "unit": "%"}, {"measurement": "inhibition at 1 µM", "setting": "ITK", "result": 1, "unit": "%"}, {"measurement": "inhibition at 1 µM", "setting": "VRK1", "result": 2, "unit": "%"}, {"measurement": "inhibition at 1 µM", "setting": "MAPKAPK3", "result": 8, "unit": "%"}, {"measurement": "inhibition at 1 µM", "setting": "MEK1", "result": 13, "unit": "%"}, {"measurement": "inhibition at 1 µM", "setting": "CK1gamma1", "result": -11, "unit": "%"}, {"measurement": "inhibition at 1 µM", "setting": "BTK", "result": 1, "unit": "%"}, {"measurement": "inhibition at 1 µM", "setting": "CDK16/CycY", "result": 17, "unit": "%"}, {"measurement": "inhibition at 1 µM", "setting": "CDK6/CycD1", "result": 1, "unit": "%"}, {"measurement": "inhibition at 1 µM", "setting": "p38gamma", "result": 10, "unit": "%"}, {"measurement": "inhibition at 1 µM", "setting": "PKCiota", "result": -4, "unit": "%"}, {"measurement": "inhibition at 1 µM", "setting": "PAK1", "result": -6, "unit": "%"}, {"measurement": "inhibition at 1 µM", "setting": "BRAF", "result": 0, "unit": "%"}, {"measurement": "inhibition at 1 µM", "setting": "RPS6KA6", "result": -3, "unit": "%"}, {"measurement": "inhibition at 1 µM", "setting": "ZAK", "result": -4, "unit": "%"}, {"measurement": "inhibition at 1 µM", "setting": "HIPK4", "result": 11, "unit": "%"}, {"measurement": "inhibition at 1 µM", "setting": "VEGFR1", "result": 8, "unit": "%"}, {"measurement": "inhibition at 1 µM", "setting": "WNK2", "result": -8, "unit": "%"}, {"measurement": "inhibition at 1 µM", "setting": "DNAPK", "result": 2, "unit": "%"}, {"measurement": "inhibition at 1 µM", "setting": "DYRK2", "result": 1, "unit": "%"}, {"measurement": "inhibition at 1 µM", "setting": "TSSK1", "result": -10, "unit": "%"}, {"measurement": "inhibition at 1 µM", "setting": "TIE2", "result": -18, "unit": "%"}, {"measurement": "inhibition at 1 µM", "setting": "ERK2", "result": 9, "unit": "%"}]}]}
